According to article PMC11424460, “Inhibitory effects of calcium channel blockers nisoldipine and nimodipine on ivacaftor metabolism and their underlying mechanism” (Frontiers in Pharmacology, 2024):
Entries after “also recorded” stand apart in the source; their conditions may differ. Where two headings read alike, the source gives them in different places. One block for each compound: values may come before it.

What was measured:
[1] = molecular target: ivacaftor metabolism in rat liver microsomes (RLM); experiment: IC50 and inhibition mechanism (Lineweaver-Burk, Ki, αKi) on ivacaftor metabolism in RLM; format: in vitro ADME; settings: for IC50: ivacaftor 8.8 μM; for Inhibition type: Lineweaver-Burk plots
Method: (§1) This system was made up of 200 μL of incubation solution consisting of 0.3 mg/mL RLM or 0.4 mg/mL HLM, 1.0 mM NADPH, pH 7.4 PBS and ivacaftor. […] In HLM, a range of concentrations (0.1, 1, 2, 4, 12, 25 μM) of ivacaftor was used to determine Km. The solution should be pre-incubated at 37°C for 5 min before adding NADPH. Following the addition of NADPH, the mixture should be incubated for 40 min. The reaction should then be stopped at −80°C. After the enzyme reaction was completed, 20 μL of 500 ng/mL IS solution and 400 μL acetonitrile (protein precipitating agent) were added to the mixture. The mixture was vortexed for 2 min and then centrifuged at 13,000 rpm for 10 min. After centrifugation, 100 μL of the supernatant was quantified using UPLC-MS/MS.
(§2) The IC50 values for the inhibitory effects of nisoldipine and nimodipine on ivacaftor in HLM were also determined. […] The final concentration of DMSO in the culture system is less than 1%. […] The incubation and post-treatment procedures were consistent with the enzyme incubation of ivacaftor described above Section 2.2.
(§3) The incubation and post-treatment procedures were consistent with the enzyme incubation of ivacaftor described above Section 2.2.
(§4) Km values, IC50 values, Lineweaver-Burk plots and mean plasma concentration-time curves were all generated using GraphPad Prism 9.0 software (GraphPad Software, Inc., United States). Pharmacokinetic parameters of ivacaftor and M1 were obtained by analyzing them using the non-compartmental model of Drug and Statistics (DAS) (version 3.0, Mathematical Pharmacology Professional Committee of China, Shanghai, China), and a one-way ANOVA was performed to compare the pharmacokinetics of the three groups of rats using SPSS (version 26.0; SPSS Inc., Chicago, IL, United States). A P-value <0.05 was considered statistically significant. Data were represented as mean ± standard deviation (SD).

[2] = tested on: ivacaftor metabolism in rat liver microsomes (RLM); experiment: Screening of 79 drugs (100 μM) for inhibition of ivacaftor metabolism in RLM incubation; format: in vitro ADME; settings: each drug 100 μM, 0.3 mg/mL RLM
Method: The supernatants were centrifuged at 100,000 × g for 1 h, and the pellets were resuspended with cold […] PBS. Protein concentrations were determined by Bradford Protein Assay Kit (Thermo Scientific, Waltham, MA, United States).
This system was made up of 200 μL of incubation solution consisting of 0.3 mg/mL RLM or 0.4 mg/mL HLM, 1.0 mM NADPH, pH 7.4 PBS and ivacaftor. […] The solution should be pre-incubated at 37°C for 5 min before adding NADPH. Following the addition of NADPH, the mixture should be incubated for 40 min. The reaction should then be stopped at −80°C. After the enzyme reaction was completed, 20 μL of 500 ng/mL IS solution and 400 μL acetonitrile (protein precipitating agent) were added to the mixture. The mixture was vortexed for 2 min and then centrifuged at 13,000 rpm for 10 min. After centrifugation, 100 μL of the supernatant was quantified using UPLC-MS/MS.
Each drug was used at a concentration of 100 μM as the inhibitor. The culture system was 200 μL and included 0.3 mg/mL RLM, 1.0 mM NADPH, PBS, ivacaftor, and inhibitor. The reaction procedure was the same as the enzyme reaction mentioned above Section 2.2.

[3] = set-up: method as in Harbeson et al., 2017; settings: male rats, gavage of 10 mg/kg ivacaftor alone, PEG400 as solvent; ref Harbeson et al., 2017; cited from earlier work
[4] = Pharmacokinetics of ivacaftor and M1 in Sprague-Dawley rats with or without nisoldipine or nimodipine; format: in vivo; settings: male, rat, plasma, po, ivacaftor 10 mg/kg gavage, nisoldipine 1 mg/kg or nimodipine 10 mg/kg 30 min before
Method: The animal study was supervised and approved by Ethics Committee of The First Affiliated Hospital of Wenzhou Medical University (WYYY-IACUC-AEC-2023-065). 12 Sprague-Dawley male rats (220 ± 20 g) were purchased from the First Affiliated Hospital of Wenzhou Medical University and randomly divided into three groups: group A (control), group B (nisoldipine), and group C (nimodipine), with 4 rats in each group. A 12 h fast with no restriction on water intake was conducted prior to the experiment. […] Group B were received nisoldipine (1 mg/kg) via gavage, while group C were received nimodipine (10 mg/kg) via the same method. Group A were given the same volume of CMC-Na to serve as a control. […] Before UPLC-MS/MS analysis, supernatant was mixed with 300 μL acetonitrile and 10 μL IS (500 ng/mL), and then vortexed for 2 min and centrifuged at 13,000 rpm for 10 min at 4°C. Finally, a 100 μL sample of supernatant was collected for UPLC-MS/MS analysis. […] SPSS Inc., Chicago, IL, United States). […] Data were represented as mean ± standard deviation (SD).

[5] = tested on: rat liver microsomes (RLM); settings: read-out: Km (Michaelis-Menten constant); RLM 0.3 mg/mL, 40 min incubation
Method: as §1
as §4, with “Data were represented as mean ± standard deviation (SD).” left out

[6] = tested on: human liver microsomes (HLM); settings: read-out: Km (Michaelis-Menten constant); HLM 0.4 mg/mL, 40 min incubation
Method: as §1
as §4, with “Data were represented as mean ± standard deviation (SD).” left out

[7] = set-up: method as in Schneider et al., 2015; settings: ref Schneider et al., 2015; cited from earlier work
[8] = molecular target: ivacaftor metabolism in human liver microsomes (HLM); experiment: IC50 and inhibition mechanism (Lineweaver-Burk, Ki, αKi) on ivacaftor metabolism in HLM; format: in vitro ADME; settings: for Inhibition type: Lineweaver-Burk plots; for IC50: ivacaftor 6.8 μM
Method: as §1, §2, §3, §4

[9] = tested on: CYP3A; settings: strong CYP3A inhibitor co-administered; FDA report; ref Garg et al., 2019; cited from earlier work

IC50 [1]: 15.6 µM
SMILES: CCOC(=O)C1=C(C)NC(C)=C(C(=O)OC)C1c1cccc(Cl)c1Cl (stereo not drawn) [Felodipine]
Metabolic rate (Mean ± SD, % of control) [2]: 13.47 ± 1.71 % of control

AUC(0-inf) ([4]; n = 4): 9360 ng·h/mL | AUC(0-t) ([4]; n = 4): 8410 ng·h/mL | Cmax ([4]; n = 4): 676 ± 242 ng/mL | CL/F ([4]; n = 4, read-out: CLz/F of ivacaftor (converted)): 18.2 mL/min/kg | half-life ([4]; n = 4, read-out: t1/2 of ivacaftor (converted)): 12.2 ± 4.8 h | Km [5]: 8.8 µM | Km [6]: 6.8 µM
SMILES: CC(C)(C)c1cc(C(C)(C)C)c(NC(=O)c2c[nH]c3ccccc3c2=O)cc1O [Ivacaftor, N-(2,4-Di-tert-butyl-5-hydroxyphenyl)-4-oxo-1,4-dihydroquinoline-3-carboxamide]
AUC(0–24h) of ivacaftor [3]: 22,177 ng/mL*h | plasma protein binding [7]: > 97%

IC50 [1]: 2.17 µM
SMILES: CCOC(=O)C1=C(C)NC(C)=C(C(=O)OCC)C1c1ccccc1/C=C/C(=O)OC(C)(C)C [Lacidipine]
Metabolic rate (Mean ± SD, % of control) [2]: 14.13 ± 1.07 % of control

Ki [1]: 3.26 µM | Inhibition type [1]: Competitive inhibition | IC50 [1]: 4.57 µM | IC50 ([1]; listed as nimodipine): < 10 µM | Ki [8]: 5.87 µM | Inhibition type [8]: Competitive inhibition | IC50 [8]: 7.15 µM | IC50 ([8]; listed as nimodipine): < 10 µM
SMILES: COCCOC(=O)C1=C(C)NC(C)=C(C(=O)OC(C)C)C1c1cccc([N+](=O)[O-])c1 (stereo not drawn) [Nimodipine]
Metabolic rate (Mean ± SD, % of control) [2]: 7.84 ± 0.43 % of control

Ki [1]: 3.35 µM | α [1]: 2.53 | IC50 [1]: 6.55 µM | IC50 ([1]; listed as nisoldipine): < 10 µM | α ([1]; listed as nisoldipine): 8.48 | Ki [8]: 3.92 µM | α [8]: 9.03 | IC50 [8]: 9.1 µM | IC50 ([8]; listed as nisoldipine): < 10 µM | α ([8]; listed as nisoldipine): 35.40
SMILES: COC(=O)C1=C(C)NC(C)=C(C(=O)OCC(C)C)C1c1ccccc1[N+](=O)[O-] (stereo not drawn) [Nisoldipine]
Inhibition type [1]: Non-competitive inhibition and competitive inhibition | Inhibition type ([1]; listed as nisoldipine): mixed inhibition; also recorded: mixed-type of non-competitive and competitive inhibition | Inhibition type [8]: Non-competitive inhibition and competitive inhibition | Inhibition type ([8]; listed as nisoldipine): mixed inhibition; also recorded: mixed-type of non-competitive and competitive inhibition | Metabolic rate (Mean ± SD, % of control) [2]: 7.29 ± 4.05 % of control

SMILES: CC(C)=CC[C@@H](O)C1=CC(=O)c2c(O)ccc(O)c2C1=O [Shikonin]
Metabolic rate (Mean ± SD, % of control) [2]: 41.65 ± 3.13 % of control

SMILES: COc1cc(C2Oc3cc([C@H]4Oc5cc(O)cc(O)c5C(=O)[C@@H]4O)ccc3OC2CO)ccc1O (stereo partly drawn) [Silibinin]
Metabolic rate (Mean ± SD, % of control) [2]: 54.73 ± 1.11 % of control

SMILES: N[C@@H](CC(=O)N1CCn2c(nnc2C(F)(F)F)C1)Cc1cc(F)c(F)cc1F [Sitagliptin]
Metabolic rate (Mean ± SD, % of control) [2]: 97.11 ± 2.13 % of control

SMILES: O=C1C=CC[C@@H]2[C@H]3CCCN4CCC[C@@H](CN12)[C@@H]34 [Sophocarpine]
Metabolic rate (Mean ± SD, % of control) [2]: 93.46 ± 2.14 % of control

SMILES: O=C1CCC[C@@H]2[C@H]3CCCN4CCC[C@H](CN12)[C@@H]34 [Sophoridine]
Metabolic rate (Mean ± SD, % of control) [2]: 109.11 ± 5.90 % of control

SMILES: CCCc1nc2c(C)cc(-c3nc4ccccc4n3C)cc2n1Cc1ccc(-c2ccccc2C(=O)O)cc1 [Telmisartan]
Metabolic rate (Mean ± SD, % of control) [2]: 14.98 ± 1.00 % of control

SMILES: COc1ccc2cc1Oc1ccc(cc1)C[C@H]1c3cc(c(OC)cc3CCN1C)Oc1c(OC)c(OC)cc3c1[C@H](C2)N(C)CC3 [Tetrandrine]
Metabolic rate (Mean ± SD, % of control) [2]: 71.96 ± 16.27 % of control

SMILES: COC(=O)Nc1c(N)nc(-c2nn(Cc3ccccc3F)c3ncc(F)cc23)nc1N [Vericiguat]
Metabolic rate (Mean ± SD, % of control) [2]: 76.32 ± 1.42 % of control

SMILES: Cc1ccc(Sc2ccccc2N2CCNCC2)c(C)c1 [Vortioxetine]
Metabolic rate (Mean ± SD, % of control) [2]: 3.17 ± 0.50 % of control

SMILES: CC(=O)CC(c1ccccc1)c1c(O)c2ccccc2oc1=O (stereo not drawn) [Warfarin]
Metabolic rate (Mean ± SD, % of control) [2]: 95.32 ± 3.41 % of control

SMILES: CSCCNc1nc(SCCC(F)(F)F)nc2c1ncn2[C@@H]1O[C@H](COP(=O)(O)OP(=O)(O)C(Cl)(Cl)P(=O)(O)O)[C@@H](O)[C@H]1O [cangrelor]
Metabolic rate (Mean ± SD, % of control) [2]: 105.13 ± 0.21 % of control

SMILES: CCC(C)n1ncn(-c2ccc(N3CCN(c4ccc(OCC5COC(Cn6cncn6)(c6ccc(Cl)cc6Cl)O5)cc4)CC3)cc2)c1=O (stereo not drawn) [itraconazole]
increase in AUC of ivacaftor when combined with the inhibitor [9]: 15.6 fold

SMILES: CC(=O)N1CCN(c2ccc(OCC3COC(Cn4ccnc4)(c4ccc(Cl)cc4Cl)O3)cc2)CC1 (stereo not drawn) [ketoconazole]
increase in AUC of ivacaftor when combined with the inhibitor [9]: 8.5 fold

SMILES: CC(C)n1c(=O)cc(N[C@@H](C)c2ccccc2)[nH]c1=O [mavacamten]
Metabolic rate (Mean ± SD, % of control) [2]: 94.17 ± 0.21 % of control
